Source: patent US20140039204A1, “7'-PHLOROECKOL COMPOUND FOR HAIR PROLIFERATION AND A COSMETIC COMPOSITION CONTAINING SAME” (PUKYONG NATIONAL UNIVERSITY INDUSTRY-UNIVERSITY COOPERATION …, priority 2011, published 2014)

Tests used:
[1] = system: Human Hair Follicle Dermal Papilla Cells (HFDPC); assay: MTT assay, cell proliferation of HFDPC; format: cell-based
Procedure: (§1) Human Hair Follicle Dermal Papilla Cells (HFDPC) were purchased from Promo Cell (Heidelberg, Germany). Cells were cultured in ready-to-use HFDPC medium, which is composed of Basal Medium, Fetal Calf Serum (FCS), Supplement Kit (Promo Cell, Heidelberg, Germany) including basic FGF and insulin. Kit including HEPES Buffer Saline Solution (HBSS), trypsin/EDTA solution and Trypsin Neutralizing Solution (Promo Cell, Heidelberg, Germany) was used for subculture. Subcultured 4th to 6th TFDPC was used for experiments. HaCaT (human epidermal keratinocyte) was cultured in Dulbecco's modified Eagle's medium (DMEM, Gibco BRL,
(§2) 3-[4,5-dimethylthiazol-2yl]-2,5 diphenyl tetrazolium bromide (MTT) Assay
(§3) Cell proliferation of HFDPC and HaCaT were measured by using MTT method. After cells were seeded in 96-well with serum-free medium, the cells were incubated for 1 day (1.0×10^4 cells/well). Then, we replaced with new medium and cells were treated with 0.01 μM, 0.05 μM, 0.1 μμM, 0.5 μM and 1 μM samples, then incubated for 5 days. MTT solution (5 mg/ml) was added, the cells were cultivated in 37° C. incubator for 3 hours. Then, the medium were removed and the formazan crystal were dissolved with Dimethyl sulfoxide (DMSO), then the absorbance of the solution were measured.
As described in the FIG. 1 and FIG. 2, data were expressed as the percentage on the control that doesn't contain the treated samples. […] Different letters as stated on the graph indicate a significant difference in Duncan's multiple range test (p<0.05).

[2] = system: HaCaT (human epidermal keratinocyte); assay: MTT assay, cell proliferation of HaCaT; format: cell-based; conditions: 5 days
Procedure: as §1, §2, §3
As described in the FIG. 1 and FIG. 2, data were expressed as the percentage on the control that doesn't contain the treated samples. […]

[3] = system: ERK pathway (MEK ½, p-ERK, total ERK, c-Fos) in HFDPC; assay: Western blot, ERK pathway in HFDPC; format: cell-based, human; conditions: 1 hour
Procedure: (§4) Western blot assay was performed as standard procedure to study the action mechanism on HFDPC and HaCaT proliferation mediated by 7′-phloroeckol. That is, cells were seeded with serum free medium in 6-well, then cultured for 24 hours (1.0×10^6 cells/well). Then, the cells were replaced with new medium and treated with the samples in the different concentrations for 1 hour to 24 hours. The cells were lysed in RIPA lysis buffer at 4° C. for 10 minutes. 10 μg cell lysate were divided by 10% SDS-polyacrylamide gel electrophoresis, transferred to polyvinylidenefluoride membrane filter and the membranes were blocked with 5% skim milk, hybridized with primary antibodies (1:10,000 dilution). Following the incubation with secondary horseradish peroxidase-conjugated antibodies at room temperature, immunoreactive protein was detected by using chemiluminescence ECL assay kit according to the manufacturer's instructions. Western blot band was visualized by using LAS3000® Luminescent image analyzer (Fujifilm Life Science, Tokyo, Japan).
(§5) Cells were treated with 7′-phloroeckol for 1 hour to 24 hours to examine the expression of protein by using western blot assay. Graph showing the result of western blot in HFDPC were illustrated in the FIGS. 3 to 6(a) and graphs showing the result of western blot in HaCaT were illustrated in the FIGS. 3 to 6(b). While HFDPC and HaCaT were treated with 7′-phloroeckol for 1 hour in the experiment on the pathway of ERK and AKT relating cell proliferation, HFDPC and HaCaT were treated with 7′-phloroeckol for 24 hours in the experiment on Bcl-2, Bax, p53, caspase-9 and caspase-3 relating apoptosis, then the protein expression were observed.
(§6) Data were expressed as a ratio of control group that doesn't contain the treated samples, the values are means±SEM, different letters written on the graph indicate a significant defference in Duncan's multiple range test (p<0.05).
(§7) HFDPC and HaCaT were treated with 7′-phloroeckol and cultured for 1 hour to study activation of 7′-phloroeckol on ERK pathway related to cell proliferation (FIG. 3).

[4] = system: ERK pathway (MEK ½, p-ERK, c-Fos) in HaCaT; assay: Western blot, ERK pathway in HaCaT; format: cell-based, human; conditions: 1 hour
Procedure: as §4, §5, §6, §7

[5] = system: AKT pathway (PI3K, p-AKT, whole AKT) in HFDPC; assay: Western blot, AKT pathway in HFDPC; format: cell-based, human; conditions: 1 hour
Procedure: as §4, §5, §6
After HFDPC and HaCaT were treated with 7′-phloroeckol and cultured for 1 hour to study the activation of 7′-phloroeckol on AKT pathway related cell proliferation (FIG. 4). […] But, there was no difference in whole AKT levels between treated with samples and without samples. Also, 0.5 μM 7′-phloroekol induced 1.75-fold and 1.65-fold levels of PI3K and pAKT in HaCaT.

[6] = system: AKT pathway (PI3K, pAKT) in HaCaT; assay: Western blot, AKT pathway in HaCaT; format: cell-based, human; conditions: 0.5 μM, 1 hour
Procedure: as §4
(§8) Cells were treated with 7′-phloroeckol for 1 hour to 24 hours to examine the expression of protein by using western blot assay. […]
(§9) Data were expressed as a ratio of control group that doesn't contain the treated samples, the values are means±SEM, different letters written on the graph indicate a significant defference in Duncan's multiple range test (p<0.05). […]

Bcl-2, Bax, p53 in HFDPC = assay: Western blot, apoptosis-related factors in HFDPC; format: cell-based, human; conditions: 24 hours
Procedure: as §4, §5, §6
(§10) To study the apoptotic effect by 7′-phloroeckol, HFDPC and HaCaT were treated with 7′-phloroeckol, then cultured for 24 hours (FIG. 5).

Bcl-2, Bax, p53 in HaCaT = assay: Western blot, apoptosis-related factors in HaCaT; format: cell-based, human; conditions: 24 hours
Procedure: as §4, §5, §6, §10

[7] = system: caspase-3 and caspase-9 in HFDPC; assay: Western blot, caspase-3 and caspase-9 in HFDPC; format: cell-based, human; conditions: 0.5 μM, 24 hours
Procedure: as §4, §8, §9

[8] = system: caspase-3 and caspase-9 in HaCaT; assay: Western blot, caspase-3 and caspase-9 in HaCaT; format: cell-based, human; conditions: 24 hours
Procedure: as §4, §5, §9

Oc1cc(O)cc(Oc2c(O)cc(O)c3c2Oc2c(O)cc(Oc4c(O)cc(O)cc4O)cc2O3)c1 [7′-phloroeckol, 1-(3′,5′-dihydroxyphenoxy)-7-(2″,4″,6-trihydroxyphenoxy)-2,4,9-trihydroxydibenzo-1,4-dioxin]
cell proliferation in HFDPC ([1]; 0.01-1 μM, 5 days, percentage of control): increased the cell proliferation in dose-dependent manner | cell viability compared with 1 μM Minoxidil ([1]; HFDPC, 1 μM, 5 days): significantly higher cell viability than 1 μM Minoxidil | cell proliferation, 0.5 versus 1 μM ([1]; HFDPC, 0.5 to 1 μM): weren't significantly different | cell proliferation in HaCaT ([2]; 0.01-1 μM, percentage of control): increased the cell proliferation in dose-dependent manner | cell viability compared with 0.1 μM Minoxidil ([2]; HaCaT, 0.1 μM): higher cell viability than 0.1 μM Minoxidil | expression of MEK ½ protein versus control group ([3]; 0.05 μM): 1.17 fold | level of phospho-ERK (p-ERK) versus control group ([3]; 0.05 μM): 1.39 fold | expression of MEK ½ protein versus control group ([3]; 0.5 μM): 1.65 fold | level of phospho-ERK (p-ERK) versus control group ([3]; 0.5 μM): 1.71 fold | expression of c-Fos protein ([3]; 0.05 and 0.5 μM): increased the expression of c-Fos protein | total ERK levels, treated versus untreated ([3]; 0.05 and 0.5 μM): no significant difference | expression of MEK ½ protein [4]: increased in dose-dependent manner | expression of c-Fos protein [4]: increased in dose-dependent manner | expression of p-ERK protein [4]: increased in dose-dependent manner | PI3K levels versus control group ([5]; 0.05 μM): 1.76 fold | expression of phospho AKT (p-AKT) protein versus control group ([5]; 0.05 μM): 1.53 fold | PI3K levels versus control group ([5]; 0.5 μM): 3.07 fold | expression of phospho AKT (p-AKT) protein versus control group ([5]; 0.5 μM): 2.40 fold | whole AKT levels, treated versus untreated [5]: no difference | level of PI3K [6]: 1.75 fold | level of pAKT [6]: 1.65 fold | expression level of Bcl-2 (Bcl-2, Bax, p53 in HFDPC): decreased | expression level of p53 (Bcl-2, Bax, p53 in HFDPC): decreased | expression of proapoptotic molecule Bax (Bcl-2, Bax, p53 in HFDPC): decreased the expression of proapoptotic molecule Bax | expression level of Bcl-2 protein (Bcl-2, Bax, p53 in HFDPC; dose-dependent): significantly increased | expression of Bcl-2 protein versus control group (Bcl-2, Bax, p53 in HaCaT; 0.05 μM): 2.60 fold | expression of Bcl-2 protein versus control group (Bcl-2, Bax, p53 in HaCaT; 0.5 μM): 4.21 fold | level of Bax versus control (Bcl-2, Bax, p53 in HaCaT; 0.5 μM): 0.67 fold | level of p53 versus control (Bcl-2, Bax, p53 in HaCaT; 0.5 μM): 0.72 fold | expression of caspase-3 protein versus control group [7]: 0.14 fold | expression of caspase-9 protein versus control group [7]: 0.13 fold | expression of caspase-3 protein versus control group ([8]; 0.05 μM): 0.88 fold | expression of caspase-3 protein versus control group ([8]; 0.5 μM): 0.68 fold | expression of caspase-9 [8]: suppressing the expression
